The subject of this series is ATRX null/ALT+ osteosarcoma cell line SAOS2. In words: Cell viability by CellTiter-Glo after siRNA delivery. The series is classed as cell-based. To be noted: compared to negative control siRNA, FIG. 3. The procedure: Procedure: SAOS2 cell line was seeded in 100 μL of media in 96-well plates (Corning 3904) excluding edge wells at the following density of 10000 cells per well. SOAS2 cells were seeded the day prior to transduction. Custom Stealth siRNA and Negative Control siRNA were ordered from ThermoFisher. The procedure for siRNA delivery was conducted based on the manufacturer's recommendation. The SMARCAL1 targeting siRNA sequence is: […] (SEQ ID NO: 356).
Cell viability was assayed using CellTiter-Glo (Promega G7572) at 100 μL per well. Luminescence was read using PerkinElmer EnVision 2105. Values were normalized to the average values from the negative control sgRNAs. Experiments were performed three times. Shown are the triplicate results of one representative experiment. Two tailed, type 3 Student's t-test was performed to determine statistical significance, which was conducted on Microsoft Excel (Microsoft).

For the sequence “UUUCACAGAGAAAUGCUUAUGCAGG (siRNA; commercial Stealth siRNA, chemistry not given here, further chemistry not given here; listed as Homo sapiens) [siRNA targeting SMARCAL-1, Custom Stealth siRNA targeting SMARCAL1, ordered from ThermoFisher]”, the cell viability result is given as “decreased viability”.

The record behind these values is patent US20220193205A1, “METHODS OF TREATING CANCER” (Foghorn Therapeutics Inc., priority 2019, published 2022).
